Test results: US10130695B2, “Compositions containing combinations of bioactive molecules derived from microbiota for treatment of disease” (priority 2013, dated 2018)

Columns and labels:
[1] = test system: Splenic naïve (CD44loCD62Lhi) CD4+ T cells; assay: Treg induction in vitro (FACS); format: cell-based; details: anti-CD3/anti-CD28 mAb-coated beads, TGF-β; compared to no treatment control; FIG. 1
Description: First, to gain mechanistic insight into the induction of Tregs by bacteria belonging to Clostridium Clusters IV, XIVa, and XVIII, germ-free mice were colonized with a cocktail of bacteria comprising bacterial strains belonging to Clostridium Cluster IV, bacterial strains belonging to Clostridium Cluster XIVa, and bacterial strains belonging to Clostridium Cluster XVIII (“Clostridium-colonized mice”). To identify metabolites potentially involved in Treg induction, the hundreds of metabolites present in the luminal composition of Clostridium-colonized, ex-germ free mice were painstakingly investigated with NMR-based metabolome analysis coupled with principal component analysis (PCA). […] The influence of acetate, propionate, and butyrate on Treg induction in vitro was measured as follows: Splenic naïve (CD44^loCD62L^hi) CD4+ T cells were stimulated with anti-CD3 and anti-CD28 mAb-coated beads and cultured in the presence of T-cell antigen receptor signaling and TGF-β with or without each of these short-chain fatty acids listed above.

[2] = test system: OT-I CD8 T cells with colonic lamina propria CD4+CD25+ Treg cells; assay: Cognate antigen-driven suppression assay; format: cell-based, mice; details: experiment repeated adding flagellin; after 3 days
Procedure: Fourth, investigation was carried to determine whether bacteria belonging to Clostridium Clusters IV, XIVa, and XVIII provide bacterial antigens to T cells. To do this, assessment was carried out of the antigen specificity of Tregs accumulated in mice colonized by a mixture of 17strains belonging to Clostridium Clusters, […] (“17-mix”) using a cognate antigen-driven suppression assay. […] CD 11c+cells were isolated from spleens of SPF C57BL/6 mice, pulsed with 0.5 μM SIINFEKL (SEQ ID NO: 2) OT-I peptide alone or in combination with either of 5μM ISQAVHAAHAEINEAGR (SEQ ID NO: 3) OT-II peptide or autoclaved caecal contents from +17-mix mice, and plated at 5 x 10^4well. CD8OT-I T cells (Teff) were added to the CD11c+cell-seeded plates at 5 x 10^4/well. Then, CD4+CD25+T cells sorted from colonic LP of +17-mix mice (LP Treg) or from spleens of SPF OT-II mice (OT-II Treg) were added to the culture at the indicated ratio of Treg to Teff cells. After 3 days, all cells were harvested, stained with anti-CD4 and anti-CD8antibodies, and analysed by flow cytometry to enumerate the number of CD8 OT-I T cells. Depicted data in FIG. 4b represent average of duplicates. […]

| Molecule | differentiation of Treg cells [1] | colonic Lamina Propria Treg cells specific for the antigen [2] |
| --- | --- | --- |
| CC(=O)O [acetate] | enhanced differentiation of Treg cells |  |
| CCC(=O)O [propionate] | enhanced differentiation of Treg cells |  |
| flagellin: flagellin (SEQ ID NO 1), an antigen highly abundant in bacteria belonging to Clostridium Clusters IV, XIVa, and XVIII (protein) MVVQHNLQAMNSNRMLGITQKTASKSTEKLSSGYAINRAADNAAGLAISEKMRKQIRGLTQASTNAEDGISSVQTAEGALTEVHDMLQRMNELAIQAANGTNSEDDRSYIQDEIDQLTQEIDRVAETTKFNETYLLKGDTKNVDAMDYTYSYKAVTTNTVARASVLAAENTATGMSVSISFAANSGKVTAADSNNLAKAIRDQGFTITTSTQNGKVVYGLELNGSDAKANYTVSTVSMEAGTFKILNSNKQVVASVTISTTASFKKVSGMSQIVTAYSVSAAYATGDVYSLYDADGNAISANKLDKYFTAGGATEAGGIATTLSANSGVPKVYDVLGKEVSAVSIASTLVTAVKDKTAALKMNFHVGADGTDNNKIKINIEAMTAKSLGVNGLKVSGSSGTNATNAIEIIAGAIKKVSTQRSALGAVQNRLEHTINNLDNIVENTTAAESGIRDTDMATEMVKYSNANILSQAGQSMLAQSNQSNQGVLQLLQ |  | colonic Lamina Propria Treg cells specific for flagellin were isolated |
